In US11229590B2, “Sunscreen formulation” (priority 2018, dated 2022):

Legend:
[1] = formulation containing 10%, daily 2 mg/cm^2 for a week, cited from earlier work
[2] = 4-Methoxy-benzylamine formulation mice skin penetration test (plasma level by HPLC); assay type: in vivo; conditions: topical on mouse back
Procedure: Mice Test Procedures: • 1. […] The 12 mice were randomly divided into two groups. […] Add methanol and acetonitrile 200 μL, respectively. […] Precisely transfer the supernatant solution to another test tube. At 40° C. blow N2 through to dryness. […] Supernatant solution was used directly for HPLC analysis. • 4.

[3] = couples, samples 2005-2009; cited from earlier work
[4] = maternal urine, gestational weeks 6-30; cited from earlier work
[5] = Urine samples collected 2007-2009 from Californian females; assay type: in vivo, human; conditions: from 22.9 ng/mL to 200 ng/mL
Procedure: Since the first day of sunscreen usage in 1930s, the exposure to sunscreen agents has begun. Initially, the scope and frequency of the sunscreen usage among the human population were very limited. Therefore, the levels of UV filters found in human samples were usually low. However, for the last 20 years, the situation changed dramatically. In one epidemiological study conducted in 2003-2004, 2517 urine samples from United States general population were analyzed for the presence of oxybenzone (benzophenone-3, bp-3), as part of the 2003-2004 National Health and Nutrition Examination Survey [A. M. Calafat, L. Y. Wong, X. YE, J. A. Reidy, L. L. Needham, Concentrations of the sunscreen agent benzophenone-3 in residents of the United States: National Health and nutrition Examination Survey 2003-2004, Environ. Health Perspect, 116 (2008) 893-897]. Oxybenzone was detected in 97% of the all samples with mean concentration of 22.9 ng/ml and 95th percentile concentration of 1040 ng/ml. As the data indicates, the sunscreen agent occurrences are wide spread. […] 543 (2016) 28-36]. […] About nine times higher than previously reported levels of oxybenzone (up to 13000 ng/ml, average around 200 ng/ml) were found in urine samples collected in 2007-2009 from Californian females, which is probably a result of specific demographics [C. […]

[6] = Californian females, 2007-2009; cited from earlier work
[7] = 2517 urine samples, 2003-2004; cited from earlier work

skin penetration in mice [2] | increase of average concentration in urine sample compared to 2003-2004 study [5] | SMILES | maximum plasma concentration, females [1] [ng/mL] | mean urine concentration, females [1] [ng/mL] | maximum plasma concentration, males [1] [ng/mL] | mean urine concentration, males [1] [ng/mL] | rank among urinary benzophenone-type UV filters in the study population [3] | correlation of maternal urinary levels with overall weight and head circumference of the baby [4] | average level in urine samples [6] | highest level in urine samples [6] | 95th percentile concentration in urine [7] [ng/mL] | mean concentration in urine [7] [ng/mL] | share of urine samples in which detected [7] [%]
 |  | CCCCC(CC)COC(=O)C=Cc1ccc(OC)cc1 (stereo not drawn) [octyl methoxycinnamate] | 10 | 5 | 2 | 8 |  |  |  |  |  |  | 
 |  | Cc1ccc(C=C2C(=O)C3(C)CCC2C3(C)C)cc1 (stereo not drawn) [4-methylbenzylidene camphor] | 20 | 5 | 20 | 7 |  |  |  |  |  |  | 
could not penetrate the skin of mice |  | COc1ccc(CN)cc1 [4-methoxy-benzylamine] |  |  |  |  |  |  |  |  |  |  | 
 | more than 9 folds | COc1ccc(C(=O)c2ccccc2)c(O)c1 [oxybenzone, 2-hydroxy-4-methoxybenzophenone] | 200 | 60 | 300 | 140 | most predominant | positively correlated | around 200 ng/ml | up to 13000 ng/ml | 1040 | 22.9 | 97
